Source: patent US5578725A, “Delta opioid receptor antagonists” (priority 1995, dated 1996)

How the values were obtained:
[1] = K. Arakawa et al.; cited from earlier work
[2] = target: δ opioid receptors (Mus musculus, UniProt P32300); parameters: mouse vas deferens (MVD) preparations; from tissue; host or cells: mouse vas deferens, electrically stimulated; details: MVD, DADLE; data from Korlipara et al.; 15 min; read-out: Ke; cited from earlier work
[3] = target: μ (Cavia porcellus, UniProt A0ACM8Q262); details: data from Portoghese et al.; cited from earlier work
μ, sequence (A0ACM8Q262 1-400): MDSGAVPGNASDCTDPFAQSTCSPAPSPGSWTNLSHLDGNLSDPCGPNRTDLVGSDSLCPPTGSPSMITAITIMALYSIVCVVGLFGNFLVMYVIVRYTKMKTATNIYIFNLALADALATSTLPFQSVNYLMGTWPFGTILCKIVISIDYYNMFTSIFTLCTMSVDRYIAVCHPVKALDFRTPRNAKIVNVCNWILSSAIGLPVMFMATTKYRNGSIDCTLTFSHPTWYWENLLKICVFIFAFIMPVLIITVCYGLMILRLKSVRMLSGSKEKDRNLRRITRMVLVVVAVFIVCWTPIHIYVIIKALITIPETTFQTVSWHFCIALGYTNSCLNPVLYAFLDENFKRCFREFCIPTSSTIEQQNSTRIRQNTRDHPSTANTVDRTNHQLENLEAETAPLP

[4] = test system: rats; details: compared to peptidyl delta-opioid receptor antagonists; Ser. No. 07/750,109; cited from earlier work
[5] = target: δ1 (Mus musculus, UniProt P32300); details: mouse, in vivo
δ1, sequence (P32300 whole entry): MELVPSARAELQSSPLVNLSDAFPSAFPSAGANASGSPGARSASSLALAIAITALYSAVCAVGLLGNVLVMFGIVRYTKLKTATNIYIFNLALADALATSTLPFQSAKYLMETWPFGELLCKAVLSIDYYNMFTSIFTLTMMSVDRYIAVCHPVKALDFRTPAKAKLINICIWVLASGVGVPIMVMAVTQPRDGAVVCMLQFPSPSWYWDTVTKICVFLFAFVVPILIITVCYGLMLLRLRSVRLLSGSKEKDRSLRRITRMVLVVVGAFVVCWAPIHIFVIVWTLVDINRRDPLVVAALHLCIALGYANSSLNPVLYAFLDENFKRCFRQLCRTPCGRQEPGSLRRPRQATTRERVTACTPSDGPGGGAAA

δ opioid receptors, sequence (P32300 whole entry): as above

Compound: Oc1ccc2c3c1O[C@H]1c4[nH]c5ccccc5c4C[C@@]4(O)[C@@H](C2)N(CC2CC2)CC[C@]314 [Compound 1, naltrindole]
- immunosuppressive activity (in words) [1]: potent immunosuppressive activity
- Kb [2]: 0.2 nM
- Ki [3]: 3.8 nM
- suppression of ethanol drinking (in words) [4]: unexpectedly prolonged suppression of ethanol drinking
- Dose required to double the ED50 of DPDPE, i.c.v. [5]: 0.3 nmol/kg
- Dose required to double the ED50 of DPDPE, i.v. ([5]; iv): 2.19 µmol/kg
- penetration into the CNS (in words) ([5]; iv): penetrates the CNS more readily than the conjugates
